Experimental data reported in paper PMC4267740, “Unprecedented Therapeutic Potential with a Combination of A2A/NR2B Receptor Antagonists as Observed in the 6-OHDA Lesioned Rat Model of Parkinson's Disease” (PLoS ONE, 2014).
Where “and” joins values, the source holds several entries; their conditions need not be identical. Identical values can stand only once. Entries after “also recorded” stand apart in the source; their conditions may differ. Like-named read-outs stand apart in the source and are kept apart here.

Key:
[1] = test system: unilateral 6-OHDA-lesioned rats; assay: L-Dopa-induced contralateral rotations in rotometers, add-on therapy; type: in vivo, rat; settings: add-on to L-Dopa 25 mg/kg ip, Sch-58261 0.3 mg/kg ip, Co-101244 1 mg/kg ip
Protocol: (§1) To protect norepinephrinergic neurons, animals were administered imipramine HCl (Sigma) 15 minutes before surgery. They were subsequently anesthetized with ketamine (Ceva, 75 mg/kg) and xylazine (Bayer, 10 mg/kg) and placed in stereotaxic frame (David Kopf Instrument). 6-OHDA was injected into the right ascending medial forebrain bundle at the following coordinates (in mm) relative to bregma and surface of the dura, AP = −3.5, ML = −1.5, DV = −8.7. Each rat received one injection of 6-OHDA (4 µg/µl) over a period of 5 minutes (0.5 µl/min) for a total of 10 µg per rat. Animals were monitored for 3 weeks to ensure full recovery and habituation to the environment and experimenters.
(§2) On day 21 post surgery, all rats were challenged with a small dose of subcutaneously administered apomorphine (Sigma, 0.05 mg/kg). Rats showing more than 90 contralateral rotations (360°) over a 45-minute recording period were included in the study. […] For each experiment, rats were allocated to the different experimental groups in order to get the same mean level of basal activity measured at the apomorphine challenge amongst the different experimental groups.
The rats tested one week earlier for general activity (actometers) were once again placed in clear acrylic individual chambers (50×45 cm) with the same treatment (drug and dose) than that previously received plus L-Dopa. Eight chambers were placed on a level, clear glass bottom, held by a robust frame, and were subdivided into four individual test cages of 25×22 cm. A removable acrylic plate served as a lid.
Rotational behaviour was recorded using a home-made computerized system. Rats were fixed in a harness and linked to mechanical sensors connected directly to a computer. Each 360° clock-wise or counter clock-wise turn was automatically recorded for up to 120 minutes at the maximum. Throughout the experiments, rats were allocated to individual test cages.
Four different combinations were administered as add-on treatment to a low active dose of L-Dopa (25 mg/kg, ip) without any dopa decarboxylase inhibitor to avoid any additional pharmacokinetic interaction. The doses of the compounds were selected on the basis of preliminary dose-response curves performed separately for each drug. To avoid ceiling effect with L-Dopa, only submaximal doses of each drug were selected for testing (as it was done previously for monotherapy). Eight L-Dopa naïve animals were tested for each of the four pharmacological condition: vehicle and L-Dopa (25 mg/kg); A2A antagonist followed by vehicle and L-Dopa; vehicle followed by NR2B antagonist and L-Dopa; A2A antagonist followed by NR2B and L-Dopa. Due to the dominance of the L-Dopa-effect on the lesioned striatum, the unilateral 6-OHDA-lesioned rats rotated after the drugs administration and behavioral activity was recorded in rotometers (i.e. level of contralateral rotations).
All drugs were administered i.p. 25 minutes before behavioural recording, except for the Tozadenant and Radiprodil combination which was administered orally 60 minutes before behavioural recording. As Radiprodil was administered orally, L-Dopa was given 45 minutes after the Radiprodil injection whereas for the other combinations L-Dopa was given 15 minutes after the NR2B drug. The drugs, the doses and the combinations given in co-administration to L-Dopa are described in Table 4 .
The impact of treatment with A2A or NR2B receptor antagonists, given alone or in combination, on the effect of L-Dopa on contralateral rotations was also analysed with a three-way mixed ANOVA. The ANOVA included the A2A and the NR2B receptor antagonists (both, 2 levels, vehicle and the drug) as between-group factors combined with time (12 levels) as within-subjects factor. […] The ability of the combination to increase and prolong the activity of L-Dopa was also explored. Consequently, drug effects were analyzed for every 10-min time interval. […]

NR2B [2] = test system: NR2B; parameters: method as in PMID 10454475, PMID 10425109; settings: TEVC recording; cited from earlier work
[3] = test system: unilateral 6-OHDA-lesioned rats; assay: Rearing counts in actometers, monotherapy (without L-Dopa); type: in vivo, rat; settings: Co-101244 1 mg/kg ip
Protocol: as §1, §2
(§3) Drug-naïve separate rats were tested individually in clear acrylic chambers (LE8811 IR, Panlab). Locomotion was detected and measured by 16 infrared light-beam sensors located on each side of the enclosure at a height of 3 cm. Sensors were spaced such that the light beams formed a matrix of 15×15 squares over the surface. Activity counts were recorded on a computer and Acti-Track software (Actitrack, Panlab) was used to convert raw data into “distance traveled” and “rearing counts” for analysis as relevant dependent variables.
(§4) Six different combinations of A2A/NR2B antagonists were tested without L-Dopa. For each combination, there were four different procedures: vehicle only; A2A antagonist followed by vehicle; vehicle followed by the NR2B antagonist and A2A antagonist followed by the NR2B antagonist. The drugs, doses and combinations are described in Table 3. After drug administration, rats were placed in actometers (open-field) for monitoring the general level of motor activity (distance traveled and rearing counts).
(§5) Before undertaking the study, each A2A and NR2B antagonist was tested individually. The doses were selected on the basis of preliminary dose-response curves performed separately for each drug and submaximal dose (i.e. response observed is not at its maximal level) of each drug was selected for the combination studies. The two drugs were administered separately via an intraperitoneal (ip) injection with a 2-minute interval between the two drugs. Five minutes after the second injection, animals were placed in the testing cage for behavioural recording. Due to formulation and exposure issues, Tozadenant and Radiprodil had to be administered orally and therefore recording was started 60 minutes post dosing at this corresponds to maximum plasma concentrations. Eight drug-naïve animals were used for each of the four procedures; 32 in total for each combination. All behavioral experiments were conducted between 8.00 AM and 2.00 PM at the latest. Preliminary pharmacokinetic assays investigated the plasma and brain disposition of selected drugs administered alone or in combination (ie. Tozadenant/Radiprodil, and Sch-58261/Co-101244; 3 animals per group). Tozadenant and Radiprodil were measured in samples obtained 60 minutes after single oral administration at 30 mg/kg. Sch-58261 and Co-101244 were measured in samples collected 90 min after single intraperitoneal administration at 3 mg/kg.
(§6) The effects of A2A and NR2B antagonists on the level of motor activity (i.e. distance traveled and rearing counts) were assessed with three-way mixed ANOVA, combining the A2A receptor antagonist (2 levels, vehicle and the A2A drug) and the NR2B antagonist (2 levels, vehicle and the NR2B drug) as between-group factors with the time as within-subjects factor (6 or 9 levels). […]

[4] = Plasma and brain exposure in satellite lesioned rats; type: in vivo, rat; settings: 90 min after dosing, mean ± SD
Protocol: Satellite lesioned rats (400–450 g) were anesthetized with isoflurane and sacrificed by exsanguination. Blood samples were collected in EDTA centrifuged 10 min at 3000 rpm at 4°C to obtain plasma and stored at −20°C prior the analysis. Brains were perfused by saline collected and immediately stored at −20°C prior the analysis. Brain samples were added to 4 volumes of water before being homogenized. A structural analog compound was added as internal standard to the samples and proteins were crashed using 8 volumes of acetonitrile. Compounds were analyzed on an API5000 mass spectrometer (ABSciex, Framingham, MA, USA.) equipped with a turbo ion spray source and interfaced with an Agilent 1290 Infinity LC system (Agilent Technologies, Waldbroon, Germany). The mass spectrometer was operated in the positive ionization mode with Multiple Reactions Monitoring used to quantify the various analytes (407 to 292 for Tozadenant; 398 to 109 for Radiprodil, 346 to 105 for Sch-58261 and 342 to 100 for Co-101244). A Waters HSS T3 column (2.1×30 mm, 1.8 µm) was used. The mobile phase consisted of 100% water with 0.1% formic acid (phase A) and 100% acetonitrile with 0.1% formic acid (phase B). The flow rate was 1 mL/min. A linear gradient was performed from 0 to 1 min (95 to 30% phase A), a jump to 90% B in 0.01 min, a hold period of 1.29 min at 90% phase B followed by equilibration at the initial condition was applied before the following injection.
as §5

[5] = test system: unilateral 6-OHDA-lesioned rats; assay: Distance traveled in actometers, monotherapy (without L-Dopa); type: in vivo, rat; settings: Co-101244 1 mg/kg ip
Protocol: as §1, §2, §3, §4, §5, §6

NR2B [6] = settings: In vitro Binding; cited from earlier work

Cc1ccc(CC2(O)CCN(CCOc3ccc(O)cc3)CC2)cc1 [Co-101244]
Contralateral rotations, drugs main effect, p (three-way mixed ANOVA) [1]: Not significant
Contralateral rotations, drugs × time effect, p (three-way mixed ANOVA) [1]: p<0.001
IC50 (NR2B [2]): 0.026 µM and 0.043 µM
Rearing counts, drugs alone vs vehicle, p (Newman-Keuls) ([3]; Istradefylline 0.3 mg/kg ip): Co-101244, not significant
Rearing counts, drugs main effect, p (three-way mixed ANOVA) ([3]; Istradefylline 0.3 mg/kg ip): Not significant
Rearing counts, drugs × time effect, p (three-way mixed ANOVA) ([3]; Istradefylline 0.3 mg/kg ip): p<0.01
Rearing counts, drugs main effect, p (three-way mixed ANOVA) ([3]; Sch-58261 1 mg/kg ip): p<0.001
Rearing counts, drugs × time effect, p (three-way mixed ANOVA) ([3]; Sch-58261 1 mg/kg ip): p<0.001
Plasma concentration ([4]; administered alone, ip 3 mg/kg, 3 animals (Co-101244 n = 2)): 54.7 (n = 2) ng/mL
Plasma concentration ([4]; administered in combination Sch-58261+Co-101244, both ip 3 mg/kg, 3 animals): 55.4 ± 8.32 ng/mL
Distance traveled, drugs alone vs vehicle, p (Newman-Keuls) ([5]; Istradefylline 0.3 mg/kg ip): not all drugs when administered alone improved distance traveled; also recorded: Not significant
Distance traveled, drugs main effect, p (three-way mixed ANOVA) ([5]; Istradefylline 0.3 mg/kg ip): p<0.05
Distance traveled, drugs × time effect, p (three-way mixed ANOVA) ([5]; Istradefylline 0.3 mg/kg ip): p<0.001
Distance traveled, drugs main effect, p (three-way mixed ANOVA) ([5]; Sch-58261 1 mg/kg ip): p<0.001
Distance traveled, drugs × time effect, p (three-way mixed ANOVA) ([5]; Sch-58261 1 mg/kg ip): p<0.001
IC50 (NR2B [6]): 0.004 µM
